We go through four compounds from PMC3483286, “Functional characterization and evolution of PTH/PTHrP receptors: insights from the chicken” (BMC Evolutionary Biology, 2012).

The target in assay [1] is T1, chicken PTH3R (Gallus gallus, UniProt G8YY06).
T1 sequence (G8YY06 1-530): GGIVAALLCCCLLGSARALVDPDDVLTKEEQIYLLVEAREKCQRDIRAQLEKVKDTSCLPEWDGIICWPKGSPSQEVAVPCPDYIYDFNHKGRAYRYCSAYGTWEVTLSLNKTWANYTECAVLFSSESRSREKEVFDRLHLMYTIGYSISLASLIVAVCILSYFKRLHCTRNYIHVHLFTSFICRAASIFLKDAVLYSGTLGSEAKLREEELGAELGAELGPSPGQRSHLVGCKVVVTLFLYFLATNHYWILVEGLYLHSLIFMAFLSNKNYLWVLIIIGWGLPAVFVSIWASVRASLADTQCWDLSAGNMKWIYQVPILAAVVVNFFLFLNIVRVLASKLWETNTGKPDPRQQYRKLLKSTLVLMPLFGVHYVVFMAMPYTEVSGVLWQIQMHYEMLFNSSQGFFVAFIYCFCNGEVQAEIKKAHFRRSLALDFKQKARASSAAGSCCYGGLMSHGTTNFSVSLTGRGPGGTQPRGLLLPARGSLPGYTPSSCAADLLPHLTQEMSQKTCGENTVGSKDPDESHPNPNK
The assay can be described thus: cAMP accumulation in HEK293 cells stably transfected with chicken PTH3R (radioimmunoassay). The assay is classed as cell-based. The note with it: for stimulation of PTH3R cAMP accumulation, comparison in words: chicken 1–34 peptides, 0.1 nM to 100 nM; for Emax (maximal cAMP production, PTH3R): mean ± SEM, 3 experiments in triplicate, above basal levels, * (PTH-L) p < 0.05 compared to other peptides. Here is the method: (§1) HEK293 cells were maintained in complete Dulbecco’s modified Eagle’s medium (DMEM, Sigma, Spain) with 4.5 g/L glucose, 110 mg/L sodium pyruvate and L-glutamine supplemented with 10% sterile foetal bovine serum and 0.1% penicillin: streptomycin antibiotic mixture (10.000 U:10 mg/ml, Sigma) in a humid 5% CO2 incubator (Sanyo) at 37°C. On the day prior to transfection, 2–3 x10^5 cells were seeded on 6 well-plates (Starsted, Portugal). Linearized constructs (1 μg) and Fugene 6 (Roche, Germany) cell transfection reagent were used to transfect cells according to the manufactures protocol. The transfection complex was incubated for 40 min at room temperature before adding to the cells which were left to grown for 72 hours with daily changes of complete medium. Selection of the stably transfected clones was performed with complete medium supplemented with 800 μg/ml of Geneticin (G418 sulphate, GibcoBRL) and 250 μg/ml sterile filtered 1:100 amphotericin B solution (Sigma, Spain). Cell recovery was monitored daily by constant changes of antibiotic selective medium and the success of gene integration and expression was confirmed by RT-PCR with receptor specific primers.
(§2) The capacity of chicken (1–34) PTH-family peptides to activate the stably transfected PTH1R and PTH3R cell lines was analysed by measuring intracellular cAMP production. Cell line bearing chicken receptors PTH1R and PTH3R were assayed in triplicate in the same assay in 96 well plates (Starstedt). Three independent experiments were performed. Cells were incubated at 37°C in a CO2 incubator and two days prior to the experiments, 2–3 x 10^5 cells were plated and peptide assays were carried out by adding to the recombinant cells decreasing concentrations of test peptide: 100 nM to 0.1 nM of chicken PTH(1–34), PTHrP(1–34) and PTH-L(1–34) or 100 nM of human PTH(1–34) and human TIP39 (Sigma, Spain). Prior to peptide addition, cells were incubated for 40 min with 1 mM 3-isobutyl-1-methylxantine (IBMX, Sigma), which was replaced with fresh medium containing the test peptide in the presence of 1 mM IBMX for a further 40 min. Forskolin (10 μM, Sigma) was used as positive control. Negative control assays were carried out using non-transfected cells in the presence or absence of 100 nM of each peptide. At the end of the assays, cells were washed, ressuspended in 100 μl of 1 x PBS/0.5 M EDTA and immediately frozen at −80°C to promote cell lysis for later quantification of intracellular cAMP production.
(§3) For quantification of intracellular cAMP, cells were lysed using 3 consecutive thaw (42°C)/freeze (−80°C) cycles and the supernatant and cell debris were sonicated for 20 sec on ice. Cells were boiled at 100°C for 10 min to denature proteins and the supernatant was collected after centrifugation for 10 min at 4°C and 19000 g. cAMP was quantified in duplicate by radioimmunoassay using the TRK432 kit (GE Healthcare, UK) following the manufacturer's instructions.
(§4) The results are presented as the mean ± SEM of three independent experiments carried out in triplicate for cAMP experiments and two independent experiments carried out in quadruplicate for Ca^2+ experiments. Data was plotted as the output of cAMP or Ca^2+ at different peptide concentrations for each PTHR using SigmaPlot 9 (Systat, Inc., San Jose, CA). EC50 and confidence limits were calculated using a sigmoidal curve fitting feature within the Single Ligand Binding routine of the Pharmacology module of Sigmaplot. […] To improve curve fitting the maximum empirical stimulation achieved for each receptor was assumed to be at 100 nM for all assays and the curve fitted accordingly.
Background: Changes in cAMP serve as a functional read-out for many G protein-coupled receptors.

The target in assay [2] is T2, chicken PTH1R (Gallus gallus, UniProt C7S302). The assay can be described thus: cAMP accumulation in HEK293 cells stably transfected with chicken PTH1R (radioimmunoassay). The assay is classed as cell-based. The note with it: for Emax (maximal cAMP production, PTH1R): mean ± SEM, 3 experiments in triplicate, above basal levels, * (PTHrP) p < 0.05 compared to other peptides; for accumulation of cAMP with PTH1R, human peptide, in words: human peptides at 10 nM and 100 nM, single experiment in triplicate. The protocol:
as §1, §2, §3, §4

Assay [3] deals with T1, chicken PTH3R. Nature of the assay: intracellular Ca^2+ accumulation in HEK293 cells transfected with chicken PTH3R (Fluo-4 NW). The note with it: HEK293, Fluo-4 NW; 1 μM and 100 nM of each peptide. The assay is classed as cell-based. Here is the method:
as §1, with “The transfection complex was incubated for 40 min at room temperature before adding to the cells which were left to grown for 72 hours with daily changes of complete medium. Selection of the stably transfected clones was performed with complete medium supplemented with 800 μg/ml of Geneticin (G418 sulphate, GibcoBRL) and 250 μg/ml sterile filtered 1:100 amphotericin B solution (Sigma, Spain).” left out
(§5) Intracellular Ca^2+ (iCa^2+) release was measured using the Ca^2+ sensitive fluorescent dye Fluo-4 NW (Molecular Probes, Invitrogen) according to manufacturer’s instructions. […] Incubations were carried out with 100 μl of the different peptides concentrations (from 1 μM to 100 nM) and cell fluorescence was measured every 10 sec over 2 minutes after addition of reagent using a Synergy4 (Biotek, USA) plate reader. Carbachol (100 nM; Sigma, Spain) was used as a positive control for the assay and the background signal was determined by measuring fluorescence in wells containing non-transfected cells. […]

The target of assay [4] is T2, chicken PTH1R. The assay can be described thus: intracellular Ca^2+ accumulation in HEK293 cells transfected with chicken PTH1R (Fluo-4 NW). The class given is cell-based. Conditions: HEK293, Fluo-4 NW; peptide 1 μM and 100 nM screen, decreasing concentrations. The protocol:
as §1, with “The transfection complex was incubated for 40 min at room temperature before adding to the cells which were left to grown for 72 hours with daily changes of complete medium. Selection of the stably transfected clones was performed with complete medium supplemented with 800 μg/ml of Geneticin (G418 sulphate, GibcoBRL) and 250 μg/ml sterile filtered 1:100 amphotericin B solution (Sigma, Spain).” left out
as §5

In the next assay the test system is Zebrafish PTH1R. The note with it: N-terminal peptides; ref [8],[10]; cited from earlier work. The source says:
Chicken PTHRs are activated by PTH-family peptides in a dose-dependent manner. […] Mammalian PTH1R is activated by both PTH and PTHrP which have similar potency and stimulate both cAMP and iCa^2+ production.

Entries after “also recorded” stand apart in the source; their conditions may differ. Where a SMILES comes first, the peptide text is derived from it.

T2 sequence (C7S302 1-538): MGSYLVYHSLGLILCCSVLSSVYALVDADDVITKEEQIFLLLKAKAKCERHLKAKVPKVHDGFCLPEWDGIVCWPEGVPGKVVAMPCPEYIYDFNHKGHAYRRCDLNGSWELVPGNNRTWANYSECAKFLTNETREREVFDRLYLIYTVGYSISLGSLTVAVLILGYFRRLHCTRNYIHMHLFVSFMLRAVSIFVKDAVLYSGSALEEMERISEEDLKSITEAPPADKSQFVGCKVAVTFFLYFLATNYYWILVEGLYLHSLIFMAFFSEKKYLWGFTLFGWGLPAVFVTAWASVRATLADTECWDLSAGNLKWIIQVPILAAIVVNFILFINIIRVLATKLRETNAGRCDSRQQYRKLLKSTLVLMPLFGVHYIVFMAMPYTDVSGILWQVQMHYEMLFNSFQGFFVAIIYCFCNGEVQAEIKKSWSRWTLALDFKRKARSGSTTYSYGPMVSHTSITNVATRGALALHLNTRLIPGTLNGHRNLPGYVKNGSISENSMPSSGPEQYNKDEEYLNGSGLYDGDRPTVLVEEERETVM

As for `CC[C@H](C)[C@H](NC(=O)[C@H](CC(C)C)NC(=O)[C@H](CC(N)=O)NC(=O)[C@H](CCC(N)=O)NC(=O)[C@H](CC(C)C)NC(=O)[C@H](Cc1ccccc1)NC(=O)[C@@H](NC(=O)[C@H](CCCNC(=N)N)NC(=O)[C@H](CCCNC(=N)N)NC(=O)[C@H](CCCNC(=N)N)NC(=O)[C@H](CC(C)C)NC(=O)[C@H](CC(=O)O)NC(=O)[C@H](CCC(N)=O)NC(=O)[C@@H](NC(=O)[C@H](CO)NC(=O)[C@H](CCCCN)NC(=O)CNC(=O)[C@H](CCCCN)NC(=O)[C@H](CC(=O)O)NC(=O)[C@H](Cc1c[nH]cn1)NC(=O)[C@H](CC(C)C)NC(=O)[C@H](CC(C)C)NC(=O)[C@H](CCC(N)=O)NC(=O)[C@H](Cc1c[nH]cn1)NC(=O)[C@H](CCC(=O)O)NC(=O)[C@H](CO)NC(=O)[C@@H](NC(=O)[C@H](C)N)C(C)C)[C@@H](C)CC)[C@@H](C)CC)C(=O)N[C@@H](CCC(=O)O)C(=O)NCC(=O)N[C@H](C(=O)N[C@@H](CC(N)=O)C(=O)N[C@H](C(=O)N[C@@H](C)C(=O)O)[C@@H](C)O)C(C)C` [PTHrP] (H-AVSEHQLLHDKGKSIQDLRRRIFLQNLIEGVNTA-OH; N-terminus and C-terminus assumed), at chicken PTH3R [1], the “stimulation of PTH3R cAMP accumulation, comparison in words” value (from here on “stimulation of PTH3R cAMP accumulation”) was “Stimulation of PTH3R was highest for PTHrP and PTH”; the “Emax (maximal cAMP production, PTH3R)” value was determined as 119.9 ± 11.76 pmol/well. The “stimulation of PTH3R cAMP accumulation” value at chicken PTH3R [1] (listed as PTHrP(1–34)) is “had overlapping potency with PTH(1–34) for the latter receptor”. Moreover, the “stimulation of PTH1R cAMP accumulation, comparison in words” value on chicken PTH1R [2] (chicken 1–34 peptides, 0.1 nM to 100 nM) is given as “produced the highest stimulation of PTH1R (p < 0.05)”. Moreover, the “Emax (maximal cAMP production, PTH1R)” value on chicken PTH1R [2] was 17.21 ± 1.84 * pmol/well. Further, the “release of intracellular Ca^2+ on PTH3R activation, in words” value at chicken PTH3R [3] is given as “not PTH3R”. Further, the “intracellular Ca^2+ accumulation with PTH1R, in words” value on chicken PTH1R [4] was “stimulated intracellular Ca^2+ accumulation on activation of PTH1R; also recorded: efficiently stimulated iCa^2+ accumulation with PTH1R”.
Turning to “Human TIP39: human TIP39 (Sigma, Spain), tuberoinfundibular peptide 39 [reference compound]”, in the assay with chicken PTH3R [1] (human peptides at 10 nM and 100 nM, single experiment in triplicate), the “cAMP production with PTH3R, human peptide, in words” value is listed as “only negligible cAMP production was obtained for PTH3R”. Moreover, in the assay with chicken PTH1R [2], the “accumulation of cAMP with PTH1R, human peptide, in words” value is recorded as “failed to induce accumulation of cAMP with PTH1R”.
Take “Human PTH: human PTH(1–34) [reference compound]”: the “cAMP accumulation, human peptide on chicken PTH1R” value with chicken PTH1R [2] (10^-7 M, mean ± SEM of a single experiment carried out in triplicate (Additional file 4)) is given as 21.4 ± 10 pmol/well. In addition, in the assay with chicken PTH1R [2], the “accumulation of cAMP with PTH1R, human peptide, in words” value is listed as “stimulated cAMP production with an apparently similar potency to chicken PTHrP”. Besides, the “activation of zebrafish PTH1R, in words” value in the assay with Zebrafish PTH1R is given as “activated similarly”.
For `CSCC[C@H](NC(=O)[C@H](CC(C)C)NC(=O)[C@H](CCC(N)=O)NC(=O)[C@H](CCSC)NC(=O)[C@H](CCC(=O)O)NC(=O)[C@H](CO)NC(=O)[C@@H](NC(=O)[C@@H](N)CO)C(C)C)C(=O)N[C@@H](Cc1c[nH]cn1)C(=O)N[C@@H](CC(N)=O)C(=O)N[C@@H](CC(C)C)C(=O)NCC(=O)N[C@@H](CCC(=O)O)C(=O)N[C@@H](Cc1c[nH]cn1)C(=O)N[C@@H](CCCNC(=N)N)C(=O)N[C@@H](Cc1c[nH]cn1)C(=O)N[C@H](C(=O)N[C@H](C(=O)N[C@@H](CCC(=O)O)C(=O)N[C@@H](CCCNC(=N)N)C(=O)N[C@@H](CCC(N)=O)C(=O)N[C@@H](CC(=O)O)C(=O)N[C@@H](Cc1c[nH]c2ccccc12)C(=O)N[C@@H](CC(C)C)C(=O)N[C@@H](CCC(N)=O)C(=O)N[C@@H](CCSC)C(=O)N[C@@H](CCCCN)C(=O)N[C@@H](CC(C)C)C(=O)N[C@@H](CCC(N)=O)C(=O)N[C@@H](CC(=O)O)C(=O)N[C@H](C(=O)N[C@@H](Cc1c[nH]cn1)C(=O)N[C@@H](CO)C(=O)N[C@@H](C)C(=O)O)C(C)C)C(C)C)[C@@H](C)O` [PTH] (H-SVSEMQLMHNLGEHRHTVERQDWLQMKLQDVHSA-OH; N-terminus and C-terminus assumed), at chicken PTH3R [1], the “stimulation of PTH3R cAMP accumulation” value was “Stimulation of PTH3R was highest for PTHrP and PTH”; the “Emax (maximal cAMP production, PTH3R)” value came out at 144.7 ± 20.02 pmol/well. Besides, on chicken PTH1R [2], the “Emax (maximal cAMP production, PTH1R)” value was 6.03 ± 0.78 pmol/well. For the same compound, the “intracellular Ca^2+ accumulation with PTH1R, in words” value on chicken PTH1R [4] is “had no effect”.
